Tests used:
[1] = test system: human GlyR α1 subunit P30 (α1β1L) substituted with Pip
Procedure: (§1) The cDNA for the human GlyR α1 subunit was in pGEMHE (ThermoFischer Scientific, Bishops Stortford, UK). Site-directed mutagenesis was performed using QuikChange (Agilent Technologies, Milton Keynes, UK) to generate the appropriate codon. For non-canonical amino acid mutants and conventional mutants generated by nonsense suppression, the site of interest was mutated to the TAG stop codon. Receptor mRNA was then prepared by in vitro runoff transcription using the Ambion T7 mMessage mMachine kit (ThermoFischer Scientific, Bishops Stortford, UK). Noncanonical amino acids were ligated to tRNA as previously described.
(§2) Stage V-VI oocytes of Xenopus laevis were harvested and injected with RNAs as described previously. For nonsense suppression experiments, each cell was injected with 50–100 ng each of receptor mRNA and tRNA charged with the appropriate Pro analogue ~48 h before recording. For wild type and conventional mutants, each cell received a single injection of 10–25 ng of receptor mRNA ~24 h before recording. Injection volumes were 50–100 nL per cell.
(§3) As a negative control for suppression experiments at each site, unligated tRNA was co-injected with mRNA in the same manner as charged tRNA. […] Pro recovery (injecting tRNA charged with Pro to regenerate a wild type channel via nonsense suppression) was used alongside Pro analogues as a positive control.
(§4) Two-electrode voltage clamping of Xenopus oocytes was performed using standard electrophysiological procedures as previously, using an OpusXpress system (Axon Instruments, Inc., Union City, CA, USA). All experiments were performed at 22–25 °C. […] The holding potential was −60 mV unless otherwise specified. […] Data were analysed using Prism (GraphPad Software Inc., San Diego, CA, USA), fitting concentration-response data to the four-parameter logistic equation. Statistical analysis was performed using ANOVA with a Dunnett’s multiple comparisons post test.

[2] = test system: human GlyR α1 subunit P230 (M1) substituted with Pip
Procedure: as §1, §2, §3, §4

[3] = test system: human GlyR α1 subunit P96 (loopA) substituted with Vah
Procedure: as §1, §2, §3, §4

[4] = test system: human GlyR α1 subunit P146 (CysL) substituted with TFP
Procedure: as §1, §2, §3, §4

[5] = test system: human GlyR α1 subunit P230 (M1) substituted with 2MeP; conditions: Table 2, P230 2MeP, n = 4
Procedure: as §1, §2, §3, §4

[6] = test system: human GlyR α1 subunit P30 (α1β1L) substituted with TFP
Procedure: as §1, §2, §3, §4

[7] = test system: human GlyR α1 subunit P230 (M1) substituted with CFP
Procedure: as §1, §2, §3, §4

[8] = molecular target: human GlyR α1 subunit P230 (M1) substituted with Pro (Homo sapiens, UniProt P23415); conditions: Table 2, n = 4
Sequence of human GlyR α1 subunit P230 (M1) substituted with Pro (P23415 29-457): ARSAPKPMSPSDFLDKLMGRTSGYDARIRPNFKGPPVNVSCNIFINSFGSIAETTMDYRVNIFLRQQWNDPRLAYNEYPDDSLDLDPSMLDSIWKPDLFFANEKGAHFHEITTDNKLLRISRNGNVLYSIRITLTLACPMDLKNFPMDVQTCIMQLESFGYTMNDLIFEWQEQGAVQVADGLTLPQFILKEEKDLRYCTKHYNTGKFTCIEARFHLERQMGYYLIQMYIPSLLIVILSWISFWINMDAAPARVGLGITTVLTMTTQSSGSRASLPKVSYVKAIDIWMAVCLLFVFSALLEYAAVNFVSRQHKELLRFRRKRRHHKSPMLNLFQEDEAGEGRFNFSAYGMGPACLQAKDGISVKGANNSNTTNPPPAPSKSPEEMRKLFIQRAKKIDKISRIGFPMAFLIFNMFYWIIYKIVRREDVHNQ
Procedure: as §1, §2, §3, §4

[9] = test system: human GlyR α1 subunit P230 (M1) substituted with TFP
Procedure: as §1, §2, §3, §4

[10] = molecular target: human GlyR α1 subunit P230 (M1) substituted with Vah (Homo sapiens, UniProt P23415); conditions: Table 2, n = 4
Sequence of human GlyR α1 subunit P230 (M1) substituted with Vah (P23415 29-250 limits assumed): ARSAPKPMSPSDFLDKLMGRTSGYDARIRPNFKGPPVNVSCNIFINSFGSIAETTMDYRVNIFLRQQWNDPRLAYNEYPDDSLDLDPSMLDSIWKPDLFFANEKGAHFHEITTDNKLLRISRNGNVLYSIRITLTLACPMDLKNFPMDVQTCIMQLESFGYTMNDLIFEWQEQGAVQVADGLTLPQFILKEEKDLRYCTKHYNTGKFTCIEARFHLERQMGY
Procedure: as §1, §2, §3, §4

[11] = test system: human GlyR α1 subunit P30 (α1β1L) substituted with 2MeP; conditions: Table 2, P30 2MeP, n = 5
Procedure: as §1, §2, §3, §4

[12] = test system: human GlyR α1 subunit P30 (α1β1L) substituted with Vah
Procedure: as §1, §2, §3, §4

[13] = molecular target: human GlyR α1 subunit P30 (α1β1L) substituted with Pro (Homo sapiens, UniProt P23415); conditions: Table 2, n = 6
Sequence of human GlyR α1 subunit P30 (α1β1L) substituted with Pro (P23415 29-457): as the sequence (P23415 29-457) above
Procedure: as §1, §2, §3, §4

[14] = test system: human GlyR α1 subunit P30 (α1β1L) substituted with CFP
Procedure: as §1, §2, §3, §4

[15] = Table 2, nonsense suppression, n = 4
[16] = Table 2, nonsense suppression, n = 5
[17] = Table 2, nonsense suppression, n = 6

`NCC(=O)O` [Gly, glycine] was tested, and the nH ([1]; Table 2, n = 4) was 2.7 ± 0.7, the EC50 [1, 15] was 36 µM and the pEC50 [1, 15] was 4.439 ± 0.03 M. For the same compound, the nH ([2]; Table 2, n = 4) was 1.1 ± 0.2, the EC50 [2, 15] was 68 µM and the pEC50 [2, 15] was 4.166 ± 0.08 M. The nH ([3]; Table 2, n = 4) was 1.5 ± 0.3, the EC50 [3, 15] was 94 µM and the pEC50 [3, 15] was 4.029 ± 0.05 M. The nH ([4]; Table 2, n = 5) was 2.3 ± 0.4, the EC50 [4, 16] was 156 µM and the pEC50 [4, 16] was 3.806 ± 0.05 M. It also gave a nH [5] of 1.6 ± 0.5, an EC50 ([5]; nonsense suppression) of 177 µM and a pEC50 ([5]; nonsense suppression) of 3.751 ± 0.08 M. The nH ([6]; Table 2, n = 5) was 2.7 ± 1.3, the EC50 [6, 16] was 97 µM and the pEC50 [6, 16] was 4.013 ± 0.05 M. The nH ([7]; Table 2, n = 4) was 1.4 ± 0.2, the EC50 [7, 15] was 74 µM and the pEC50 [7, 15] was 4.131 ± 0.04 M. The nH [8] was 2.5 ± 0.9, the nH ([9]; Table 2, n = 4) was 3.0 ± 1.4 and the EC50 [9, 15] was 125 µM. For the same compound, the pEC50 [9, 15] was 3.904 ± 0.06 M, the nH [10] was 2.6 ± 0.4 and the nH [11] was 1.6 ± 0.3. For the same compound, the EC50 ([11]; nonsense suppression) was 368 µM, the pEC50 ([11]; nonsense suppression) was 3.434 ± 0.06 M and the nH ([12]; Table 2, n = 4) was 3.8 ± 0.5. The EC50 [12, 15] was 21 µM, the pEC50 [12, 15] was 4.684 ± 0.03 M and the nH [13] was 2.9 ± 1.2. It also gave a nH ([14]; Table 2, n = 6) of 2.8 ± 0.7, an EC50 [14, 17] of 150 µM and a pEC50 [14, 17] of 3.825 ± 0.06 M.

Source: publication PMC9607081 (Membranes, 2022)
